Experimental data taken from patent US20220323455A1, “FUSED HETEROCYCLIC DERIVATIVES AS ANTIVIRAL AGENTS” (priority 2019, published 2022).

What follows are molecules tested on HBV (assay: HBV replication inhibition assay (BDNA assay) in HepG2.2.15 cells). Conditions: 6 days, encapsidated HBV DNA in supernatant.
Type: cell-based, Hepatitis B virus
Procedure: HBV replication inhibition by the disclosed compounds were determined in cells infected or transfected with HBV or cells with stably integrated HBV, such as HepG2.2.15 cells (Sells et al. 1987). In this example, HepG2.2.15 cells were maintained in cell culture medium containing 10% fetal bovine serum (FBS), Geneticin, L-glutamine, penicillin and streptomycin. HepG2.2.15 cells were seeded in 96-well plates at a density of 40,000 cells/well and were treated with serially diluted compounds at a final DMSO concentration of 0.5% either alone or in combination by adding drugs in a checker box format. Cells were incubated with compounds for three days, after which medium was removed and fresh medium containing compounds was added to cells and incubated for another three days. At day 6, supernatant was removed and treated with DNase at 37° C. for 60 minutes, followed by enzyme inactivation at 75° C. for 15 minutes. Encapsidated HBV DNA was released from the virions and covalently linked HBV polymerase by incubating in lysis buffer (Affymetrix QS0010) containing 2.5 μg proteinase K at 50° C. for 40 minutes. HBV DNA was denatured by addition of 0.2 M NaOH and detected using a branched DNA (BDNA) QuantiGene assay kit according to manufacturer recommendation (Affymetrix). HBV DNA levels were also quantified using qPCR, based on amplification of encapsidated HBV DNA extraction with QuickExtraction Solution (Epicentre Biotechnologies) and amplification of HBV DNA using HBV specific PCR probes that can hybridize to HBV DNA and a fluorescently labeled probe for quantitation. In addition, cell viability of HepG2.2.15 cells incubated with test compounds alone or in combination was determined by using CellTitre-Glo reagent according to the manufacturer protocol (Promega). The mean background signal from wells containing only culture medium was subtracted from all other samples, and percent inhibition at each compound concentration was calculated by normalizing to signals from HepG2.2.15 cells treated with 0.5% DMSO using equation E1.
% inhibition(DMSOave−Xi)DMSOave×100% E1:
where DMSOave is the mean signal calculated from the wells that were treated with DMSO control (0% inhibition control) and Xi is the signal measured from the individual wells. EC50 values, effective concentrations that achieved 50% inhibitory effect, were determined by non-linear fitting using Graphpad Prism software (San Diego, Calif.) and equation E2.
Y=Ymin+(Ymax−Ymin)/(1+10(Log EC50−X)×HillSlope) E2:
where Y represents percent inhibition values and X represents the logarithm of compound concentrations.
Selected disclosed compounds were assayed in the HBV replication assay (BDNA assay), as described above, and a representative group of these active compounds is shown in Table 5.
For `N#Cc1cc(NC(=O)N2CCc3nn4c(c3C2)C(F)(F)CCC(CO)C4)ccc1F` (single isomer, unassigned) [Example 19, (S*)—N-(3-Cyano-4-fluorophenyl)-11,11-difluoro-8-(hydroxymethyl)-3,4,8,9,10,11-hexahydro-1H-pyrido[4′,3′:3,4]pyrazolo[1,5-a]azepine-2(7H)-carboxamide], the EC50 was 4 nM. Work on `O=C(Nc1ccc(F)c(C(F)(F)F)c1)N1CCc2nn3c(c2C1)C(F)(F)CCC(CO)C3` (single isomer, unassigned) [Example 20, (S*)-11,11-Difluoro-N-(4-fluoro-3-(trifluoromethyl)phenyl)-8-(hydroxymethyl)-3,4,8,9,10,11-hexahydro-1H-pyrido[4′,3′:3,4]pyrazolo[1,5-a]azepine-2(7H)-carboxamide] yielded an EC50 of 4 nM. Work on `N#Cc1c(F)ccc(NC(=O)N2CCc3nn4c(c3C2)C(F)(F)CCC(CO)C4)c1F` (single isomer, unassigned) [Example 21, (S*)—N-(3-Cyano-2,4-difluorophenyl)-11,11-difluoro-8-(hydroxymethyl)-3,4,8,9,10,11-hexahydro-1H-pyrido[4′,3′:3,4]pyrazolo[1,5-a]azepine-2(7H)-carboxamide] yielded an EC50 of 1 nM. Molecule `O=C(Nc1ccnc(Br)c1F)N1CCc2nn3c(c2C1)C(F)(F)CCC(CO)C3` (single isomer, unassigned) [Example 22, (S*)—N-(2-Bromo-3-fluoropyridin-4-yl)-11,11-difluoro-8-(hydroxymethyl)-3,4,8,9,10,11-hexahydro-1H-pyrido[4′,3′:3,4]pyrazolo[1,5-a]azepine-2(7H)-carboxamide] has an EC50 of 4 nM. Molecule `N#Cc1cc(NC(=O)N2CCc3nn4c(c3C2)C(F)(F)CCC(CO)C4)ccc1F` (single isomer, unassigned) [Example 23, (R*)—N-(3-Cyano-4-fluorophenyl)-11,11-difluoro-8-(hydroxymethyl)-3,4,8,9,10,11-hexahydro-1H-pyrido[4′,3′:3,4]pyrazolo[1,5-a]azepine-2(7H)-carboxamide] has an EC50 of 18 nM. `O=C(Nc1ccc(F)c(C(F)(F)F)c1)N1CCc2nn3c(c2C1)C(F)(F)CCC(CO)C3` (single isomer, unassigned) [Example 24, (R*)-11,11-Difluoro-N-(4-fluoro-3-(trifluoromethyl)phenyl)-8-(hydroxymethyl)-3,4,8,91011-hexahydro-1H-pyrido[4′,3′:3,4]pyrazolo[1,5-a]azepine-2(7H)-carboxamide] was tested, and the EC50 was 35 nM. `N#Cc1c(F)ccc(NC(=O)N2CCc3nn4c(c3C2)C(F)(F)CCC(CO)C4)c1F` (single isomer, unassigned) [Example 25, (R*)—N-(3-Cyano-2,4-difluorophenyl)-11,11-difluoro-8-(hydroxymethyl)-3,4,8,9,10,11-hexahydro-1H-pyrido[4′,3′:3,4]pyrazolo[1,5-a]azepine-2(7H)-carboxamide] was tested, and the EC50 was 34 nM. Work on `O=C(Nc1ccnc(Br)c1F)N1CCc2nn3c(c2C1)C(F)(F)CCC(CO)C3` (single isomer, unassigned) [Example 26, (R*)—N-(2-Bromo-3-fluoropyridin-4-yl)-11,11-difluoro-8-(hydroxymethyl)-3,4,8,9,10,11-hexahydro-1H-pyrido[4′,3′:3,4]pyrazolo[1,5-a]azepine-2(7H)-carboxamide] yielded an EC50 of 25 nM. For `N#Cc1cc(NC(=O)N2CCc3nn4c(c3C2)C(F)(F)CCC(COCC(F)F)C4)ccc1F` (single isomer, unassigned) [Example 27, (S*)—N-(3-Cyano-4-fluorophenyl)-8-((2,2-difluoroethoxy)methyl)-11,11-difluoro-3,4,8,9,10,11-hexahydro-1H-pyrido[4′,3′:3,4]pyrazolo[1,5-a]azepine-2(7H)-carboxamide], the EC50 was 6 nM. Molecule `O=C(Nc1ccc(F)c(C(F)(F)F)c1)N1CCc2nn3c(c2C1)C(F)(F)CCC(COCC(F)F)C3` (single isomer, unassigned) [Example 28, (S*)-8-((2,2-Difluoroethoxy)methyl)-11,11-difluoro-N-(4-fluoro-3-(trifluoromethyl)phenyl)-3,4,8,9,10,11-hexahydro-1H-pyrido[4′,3′:3,4]pyrazolo[1,5-a]azepine-2(7H)-carboxamide] has an EC50 of 22 nM. For `N#Cc1cc(NC(=O)N2CCc3nn4c(c3C2)C(F)(F)CCC(COCC(F)F)C4)ccc1F` (single isomer, unassigned) [Example 29, (R*)—N-(3-Cyano-4-fluorophenyl)-8-((2,2-difluoroethoxy)methyl)-11,11-difluoro-3,4,8,9,10,11-hexahydro-1H-pyrido[4′,3′:3,4]pyrazolo[1,5-a]azepine-2(7H)-carboxamide], the EC50 was 78 nM. Molecule `O=C(Nc1ccc(F)c(C(F)(F)F)c1)N1CCc2nn3c(c2C1)C(F)(F)CCC(COCC(F)F)C3` (single isomer, unassigned) [Example 30, (R*)-8-((2,2-Difluoroethoxy)methyl)-11,11-difluoro-N-(4-fluoro-3-(trifluoromethyl)phenyl)-3,4,8,9,10,11-hexahydro-1H-pyrido[4′,3′:3,4]pyrazolo[1,5-a]azepine-2(7H)-carboxamide] has an EC50 of 267 nM. `N#Cc1cc(NC(=O)N2CCc3nn4c(c3C2)C(F)(F)CCC(O)(COCC(F)F)C4)ccc1F` (single isomer, unassigned) [Example 31, (R*)—N-(3-Cyano-4-fluorophenyl)-8-((2,2-difluoroethoxy)methyl)-11,11-difluoro-8-hydroxy-3,4,8,9,10,11-hexahydro-1H-pyrido[4′,3′:3,4]pyrazolo[1,5-a]azepine-2(7H)-carboxamide] showed an EC50 of 42 nM. Work on `O=C(Nc1ccnc(C(F)F)c1F)N1CCc2nn3c(c2C1)C(F)(F)CCC(O)(COCC(F)F)C3` (single isomer, unassigned) [Example 33, (R*)-8-((2,2-Difluoroethoxy)methyl)-N-(2-(difluoromethyl)-3-fluoropyridin-4-yl)-11,11-difluoro-8-hydroxy-3,4,8,9,10,11-hexahydro-1H-pyrido[4′,3′:3,4]pyrazolo[1,5-a]azepine-2(7H)-carboxamide] yielded an EC50 of 356 nM. `N#Cc1cc(NC(=O)N2CCc3nn4c(c3C2)C(F)(F)CCC(O)(COCC(F)F)C4)ccc1F` (single isomer, unassigned) [Example 34, (S*)—N-(3-Cyano-4-fluorophenyl)-8-((2,2-difluoroethoxy)methyl)-11,11-difluoro-8-hydroxy-3,4,8,9,10,11-hexahydro-1H-pyrido[4′,3′:3,4]pyrazolo[1,5-a]azepine-2(7H)-carboxamide] showed an EC50 of 17 nM. For `O=C(Nc1ccnc(Br)c1F)N1CCc2nn3c(c2C1)C(F)(F)CCC(O)(COCC(F)F)C3` (single isomer, unassigned) [Example 35, (S*)—N-(2-Bromo-3-fluoropyridin-4-yl)-8-((2,2-difluoroethoxy)methyl)-11,11-difluoro-8-hydroxy-3,4,8,9,10,11-hexahydro-1H-pyrido[4′,3′:3,4]pyrazolo[1,5-a]azepine-2(7H)-carboxamide], the EC50 was 98 nM. With `O=C(Nc1ccnc(C(F)F)c1F)N1CCc2nn3c(c2C1)C(F)(F)CCC(O)(COCC(F)F)C3` (single isomer, unassigned) [Example 36, (S*)-8-((2,2-Difluoroethoxy)methyl)-N-(2-(difluoromethyl)-3-fluoropyridin-4-yl)-11,11-difluoro-8-hydroxy-3,4,8,9,10,11-hexahydro-1H-pyrido[4′,3′:3,4]pyrazolo[1,5-a]azepine-2(7H)-carboxamide] the EC50 was 39 nM. Molecule `O=C(Nc1ccnc(Br)c1F)N1CCc2nn3c(c2C1)C(F)(F)CCC(O)(CF)C3` (single isomer, unassigned) [Example 39, (R*)—N-(2-Bromo-3-fluoropyridin-4-yl)-11,11-difluoro-8-(fluoromethyl)-8-hydroxy-3,4,8,9,10,11-hexahydro-1H-pyrido[4′,3′:3,4]pyrazolo[1,5-a]azepine-2(7H)-carboxamide] has an EC50 of 144 nM. `N#CCC1(O)CCC(F)(F)c2c3c(nn2C1)CCN(C(=O)Nc1ccnc(Br)c1F)C3` (single isomer, unassigned) [Example 41, (R*)—N-(2-Bromo-3-fluoropyridin-4-yl)-8-(cyanomethyl)-11,11-difluoro-8-hydroxy-3,4,89,10,11-hexahydro-1H-pyrido[4′,3′:3,4]pyrazolo[1,5-a]azepine-2(7H)-carboxamide] gave an EC50 of 52 nM.

Same assay, conditions: Hepatitis B virus, HepG2.2.15, 144 h, 6 days, encapsidated HBV DNA in supernatant
`C[C@@H]1Cc2nn3c(c2CN1C(=O)Nc1ccc(F)c(C#N)c1)C(F)(F)CC[C@H](CO)C3` (relative stereo) [Example 75] gave an EC50 of 5 nM.
